Assay results from patent US20260294915A1, “COMBINATION THERAPY COMPRISING A MAT2A INHIBITOR AND A TOPOISOMERASE INHIBITOR, A SPLICING INHIBITOR SULFONAMIDE, OR A KIF18 INHIBITOR” (IDEAYA BIOSCIENCES, INC., priority 2023, published 2026).
Like-named read-outs stand apart in the source and are kept apart here.

What was measured:
HuP-T4 = experiment: 10-day proliferation screen with Compound A pre-treatment (Example 3); type: cell-based; details: Homo sapiens, read-out: Growth IC50
Protocol: (§1) A 10-day proliferation screen was performed in 15 pancreatic, non-small cell lung, and bladder cancer cell lines: 10 MTAP null and 5 MTAP wild-type. Optimal cell seeding for all cell lines was determined by assessing the growth over a range of seeding densities in a 384-well format to identify conditions that permitted proliferation for 10 days. Cells were then plated at the optimal seeding density in the presence of 20-150 nM of Compound A or DMSO vehicle control. Cells were incubated at 37° C. with 5% CO2 for 4 days to allow for target engagement of the pre-treatment compound. Maintaining the pre-treatment condition, cells were also treated with an 11-point, three-fold titration series of compounds from a chemically diverse library of 424 compounds. The combination compound concentrations ranged from 0.2 nM to 14,679 nM. A plate of cells was harvested at the time of combination compound addition to quantify the number of cells at the start of the combination (T0). For cell quantification, the harvested cells were lysed with CellTiter-Glo (CTG) (Promega) reagent according to the manufacturer's protocol and the chemiluminescent signal was detected on a Synergy Neo plate reader (ThermoFisher, serial #140715A). CTG estimates cell number through detection of cellular ATP levels. Cells were incubated with the drug combinations at 37° C. with 5% CO2 for an additional 6 days for a total of a 10-day assay including the pre-treatment. Cells were then lysed with CTG and the chemiluminescent signal was measured. CTG values obtained after the 10-day treatment were background subtracted, expressed as a percent of the T0 value, and plotted against compound concentration. Data were fit with a four-parameter equation to generate concentration response curves. Growth IC50 values and maximal growth inhibition were compared between the DMSO and the Compound A pre-treated cells for each combination titration. Combination hit calling was based on the observation of >2-fold shift in growth IC50 and/or greater than 20% […] in growth inhibition.

SW900 = experiment: as above; type: cell-based; details: Homo sapiens, read-out: Growth IC50
Protocol: as §1

SKGT4 = experiment: as above; type: cell-based; details: read-out: Growth IC50
[1] = system: MKN45 (RCB1001) human gastric tumor cell-derived xenograft (CDX) model; experiment: Anti-tumor activity in MKN45 gastric mouse xenograft (CDX) model (Example 8); type: in vivo; details: Compound A 10 mg/kg oral once per day
Protocol: (§2) All mouse studies were approved by the Institutional Animal Care and Use Committee (IACUC) based on guidelines from the National Institutes of Health (NIH). Mice were maintained under pathogen-free conditions, and food and water were provided ad libitum.
The anti-tumor effect of Compound A and irinotecan hydrochloride as single-agents or in combination was assessed in the MKN45 (RCB1001) human gastric tumor cell-derived xenograft (CDX) model. MKN45 was expanded in RPMI1640 with 10% fetal bovine serum. Cells were free of mycoplasma and authenticated by STR profiling, and ten million cells in log growth phase were resuspended in Hanks Balanced Salt Solution containing 50% Matrigel and implanted subcutaneously into the flank of each recipient female Crl:NU-Foxn1nu mouse. Mice were housed in microisolator cages with corn cob bedding with additional enrichment consisting of sterile nesting material (Innovive) and Bio-huts (Bio-Serv). Water (Innovive) and diet (Teklad Global 19% Protein Extruded Diet 2919, Irradiated) were provided ad libitum. The environment was maintained on a 12-hour light cycle at approximately 68-72° F. and 40-60% relative humidity.
(§3) Tumor Volume (TV) was calculated using the following formula: TV (mm^3)=(width×width×length)/2. Tumor growth inhibition (TGI) was calculated by [(TV controlfinal−TV treatedfinal)/(TV controlfinal−TV controlinitial)×100]. TV was analyzed for statistical significance utilizing GraphPad Prism version 10.2.2. Repeated Measures 2-Way ANOVA with Dunnet's Multiple Comparisons was utilized, and P-values were derived from data collected on the date of Vehicle group termination and were considered statistically significant if less than 0.05.
(§4) Mean tumor volume at dosing start was approximately 190 mm^3, with six mice randomized to each treatment group. Mice were dosed orally, once per day, with Vehicle, Compound A at 10 mg/kg, or dosed for 3 consecutive days followed by 4 days holiday by intraperitoneal (IP) injection of Compound B at 5 mg/kg or 10 mg/kg, or combination of Compound A and Compound B. The vehicle group was a combination of Vehicle A (for Compound A, 0.5% 400 cps methylcellulose with 0.5% Tween-80 in sterile water) and Vehicle B (for irinotecan hydrochloride, Saline).

[2] = system: RT112/84 human bladder tumor cell-derived xenograft (CDX) model; experiment: Anti-tumor activity in RT112/84 mouse xenograft (CDX) model (Example 7); type: in vivo; details: Compound A 10 mg/kg oral once per day
Protocol: as §2
The anti-tumor effect of Compound A and irinotecan hydrochloride as single-agents or in combination was assessed in the RT112/84 human bladder tumor cell-derived xenograft (CDX) model. Cells were expanded in RPMI-1640 (Gibco, Catalog Number 11875093) with 10% fetal bovine serum. These cells were free of mycoplasma and authenticated by STR profiling. Five million cells in log growth phase were resuspended in Hanks Balanced Salt Solution containing 50% Matrigel and implanted subcutaneously into the flank of each recipient female Crl:NU-Foxnlnu mouse. Mice were housed in microisolator cages with corn cob bedding with additional enrichment consisting of sterile nesting material (Innovive) and Bio-huts (Bio-Serv). Water (Innovive) and diet (Teklad Global 19% Protein Extruded Diet 2919, Irradiated) were provided ad libitum. The environment was maintained on a 12-hour light cycle at approximately 68-72° F. and 40-60% relative humidity.
as §3, with “10.0.3.” for “10.2.2.”, “Tukey's” for “Dunnet's”, “Day 14 (date” for “the date”, “termination)” for “termination”, “0.05. Tumor regression was calculated by using the percent change in tumor volume from the final tumor volume measurement from Day 73 when compared to the initial tumor volume from Day 1. Tumor regression was defined as reduced TV on Day 73 compared to Day 1. Tumor regression rate was defined as the percentage of animals per group with tumor regression.” for “0.05.”
as §4, with “249” for “190”, “ten” for “six”, “5” for “5 mg/kg or 10”

Row | IC50 (SW900; SW900, Cmpd A pre-treatment 80 nM) [µM] | IC50 (SW900; SW900, DMSO pre-treatment) [µM] | IC50 (SKGT4; SKGT4, Cmpd A pre-treatment 150 nM) [µM] | IC50 (SKGT4; SKGT4, DMSO pre-treatment) [µM] | SMILES | IC50 (HuP-T4; HuP-T4, Cmpd A pre-treatment 150 nM) [µM] | IC50 (HuP-T4; HuP-T4, DMSO pre-treatment) [µM] | Day 25 TGI [1] [%] | Tumor Regression Rate on Day 25 [1] [%] | Day 25 TV (mean) ([1]; initial TV 191, vehicle 1396) [mm^3] | TGI ([1]; irinotecan 5 or 10 mg/kg IP 3 days on/4 days off) [%] | Day 14 TGI [2] [%] | Day 14 TV (mean) ([2]; initial TV 249, vehicle 1069) [mm^3] | TGI ([2]; irinotecan 5 mg/kg IP 3 days on/4 days off) [%]
1 | 1.1 | 2.28 | 0.516 | 1.06 | NS(=O)(=O)c1ccc(S(=O)(=O)Nc2cccc3c(Cl)c[nH]c23)cc1 [Indisulam, N-(3-chloro-1H-indol-7-yl)benzene-1,4-disulfonamide] | 0.549 | 1.07 | – | – | – | – | – | – | –
2 | – | – | – | – | Nc1nc(=O)n(-c2ccccc2Cl)c2nc(C(F)(F)F)ccc12 [Compound A] | – | – | 56 | 0 | 726 | 56 | 53 | 632 | 53
